# Test results from ChEMBL document CHEMBL1143627, “Enantiomerically pure hexahydropyrazinoquinolines as potent and selective dopamine 3 subtype receptor ligands” (J Med Chem, 2005).
# Tests used:
# D(2) dopamine receptor = D(2) dopamine receptor (Rattus norvegicus, UniProt P61169); assay: Inhibition of [3H]spiperone binding to Dopamine receptor D2-like in rat caudate-putamen membrane; assay type: cell membranes
# D(3) dopamine receptor = D(3) dopamine receptor (Rattus norvegicus, UniProt P19020); assay: biochemical
# Chain of D(3) dopamine receptor (P19020 whole entry): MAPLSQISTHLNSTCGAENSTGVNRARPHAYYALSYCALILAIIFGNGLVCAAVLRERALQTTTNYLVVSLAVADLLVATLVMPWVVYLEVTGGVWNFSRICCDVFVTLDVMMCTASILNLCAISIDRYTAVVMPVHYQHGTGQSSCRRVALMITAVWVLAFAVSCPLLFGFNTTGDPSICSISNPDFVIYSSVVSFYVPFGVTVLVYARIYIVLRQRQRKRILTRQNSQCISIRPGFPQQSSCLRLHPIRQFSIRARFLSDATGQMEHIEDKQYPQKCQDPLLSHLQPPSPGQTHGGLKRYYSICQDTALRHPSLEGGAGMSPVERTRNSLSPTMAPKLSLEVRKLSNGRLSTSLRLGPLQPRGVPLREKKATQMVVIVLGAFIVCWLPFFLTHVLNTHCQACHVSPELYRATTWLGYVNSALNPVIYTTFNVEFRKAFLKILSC
# Description: Inhibition of [3H]-PD 128907 binding to Dopamine receptor D3 in rat ventral striatum
# Chain of D(2) dopamine receptor (P61169 whole entry): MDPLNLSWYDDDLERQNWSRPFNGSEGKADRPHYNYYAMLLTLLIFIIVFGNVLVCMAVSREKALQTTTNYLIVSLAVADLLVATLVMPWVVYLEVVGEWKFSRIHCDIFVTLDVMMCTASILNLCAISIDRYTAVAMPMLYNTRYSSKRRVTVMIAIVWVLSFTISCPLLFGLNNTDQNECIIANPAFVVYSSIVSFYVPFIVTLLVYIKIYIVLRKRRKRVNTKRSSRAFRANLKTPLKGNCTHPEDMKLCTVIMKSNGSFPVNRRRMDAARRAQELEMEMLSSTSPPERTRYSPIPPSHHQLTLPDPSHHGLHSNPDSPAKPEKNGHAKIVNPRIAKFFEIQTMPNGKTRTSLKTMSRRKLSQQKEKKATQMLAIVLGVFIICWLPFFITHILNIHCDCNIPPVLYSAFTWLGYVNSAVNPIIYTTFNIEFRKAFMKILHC
SMILES,Ki (D(2) dopamine receptor) [nM],Ki (D(3) dopamine receptor) [nM]
COc1ccc2c(c1)CC[C@H]1CN(CCCCNC(=O)c3ccc4ccccc4c3)CCN21,> 50000,126
O=C(NCCCCN1CCN2c3ccccc3CC[C@H]2C1)c1ccc2ccccc2c1,180,16
COc1ccc2c(c1)CC[C@@H]1CN(CCCCNC(=O)c3ccc4ccccc4c3)CCN21,> 100000,67
COc1cccc2c1N1CCN(CCCCNC(=O)c3ccc4ccccc4c3)C[C@@H]1CC2,88,
COc1cccc2c1N1CCN(CCCCNC(=O)c3ccc4ccccc4c3)C[C@H]1CC2,312,
COc1cccc2c1CC[C@H]1CN(CCCCNC(=O)c3ccc4ccccc4c3)CCN21,659,9.3
O=C(NCCCCN1CCN2c3ccccc3CCC2C1)c1ccc2ccccc2c1 (stereo not drawn),1570,
O=C(NCCCCN1CCN2c3ccccc3CC[C@@H]2C1)c1ccc2ccccc2c1,585,19
COc1ccc2c(c1)N1CCN(CCCCNC(=O)c3ccc4ccccc4c3)C[C@@H]1CC2,990,96
COc1ccc2c(c1)CC[C@@H]1CN(CCN3CCC(NC(=O)c4ccc5ccccc5c4)CC3)CCN21,> 50000,4640
COc1cccc2c1CC[C@@H]1CN(CCCCNC(=O)c3ccc4ccccc4c3)CCN21,644,8.3
COc1ccc2c(c1)CC[C@H]1CN(CCC3CCC(NC(=O)c4ccc5ccccc5c4)CC3)CCN21 (stereo partly drawn),> 10000,10
COc1ccc2c(c1)N1CCN(CCCCNC(=O)c3ccc4ccccc4c3)C[C@H]1CC2,1720,44
COc1ccc2c(c1)CC[C@H]1CN(CCN3CCC(NC(=O)c4ccc5ccccc5c4)CC3)CCN21,> 25000,7160
COc1ccc2c(c1)CC[C@@H]1CN(CC[C@H]3CC[C@H](NC(=O)c4ccc5ccccc5c4)CC3)CCN21,> 10000,5.7
O=C(CCCN1CCN2c3ccccc3CCC2C1)c1ccc(F)cc1 (stereo not drawn),243,
